# From paper doi:10.1101/2025.01.31.635529v3 (biorxiv, 2025)
# Biological target: T1, PaAtg18 (Atg18) (Ogataea angusta, UniProt Q5QA94)
# T1 sequence (Q5QA94 1-525): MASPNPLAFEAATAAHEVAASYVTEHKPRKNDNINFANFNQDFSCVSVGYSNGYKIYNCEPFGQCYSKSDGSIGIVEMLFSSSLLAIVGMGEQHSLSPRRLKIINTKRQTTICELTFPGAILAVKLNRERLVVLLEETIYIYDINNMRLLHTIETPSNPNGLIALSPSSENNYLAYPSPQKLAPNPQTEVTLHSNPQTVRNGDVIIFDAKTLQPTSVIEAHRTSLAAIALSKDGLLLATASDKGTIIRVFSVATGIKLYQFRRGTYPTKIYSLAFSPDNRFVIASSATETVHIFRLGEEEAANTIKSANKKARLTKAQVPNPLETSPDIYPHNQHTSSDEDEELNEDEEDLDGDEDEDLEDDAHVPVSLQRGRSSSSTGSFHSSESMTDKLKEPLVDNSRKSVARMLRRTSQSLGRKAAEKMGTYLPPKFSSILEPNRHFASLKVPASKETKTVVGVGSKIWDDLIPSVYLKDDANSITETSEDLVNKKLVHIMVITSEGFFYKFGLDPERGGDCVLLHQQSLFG
# Assay: isothermal titration calorimetry
# Assay type: binding
row,Compound,Kd
1,"O=P(O)(O)O[C@H]1[C@H](O)[C@@H](O)[C@H](OP(=O)(O)O)[C@@H](OP(=O)(O)O)[C@H]1O [Ins(1,3,4)P3]",85.6 ± 23.5 µM
2,"O=P(O)(O)O[C@H]1[C@H](O)[C@@H](OP(=O)(O)O)[C@H](O)[C@@H](OP(=O)(O)O)[C@H]1O [Ins(1,3,5)P3]",37.4 ± 1.3 µM
3,"O=P(O)(O)O[C@@H]1[C@H](O)[C@H](O)[C@@H](OP(=O)(O)O)[C@H](OP(=O)(O)O)[C@H]1O [Ins(1,4,5)P3]",116 ± 14 µM
